According to US6468729B2, “Silver halide photographic light-sensitive material” (Fuji Photo Film Co., Ltd., priority 2000, dated 2002):

assay: pKa measurement by titration (AT-210 device, neutralization middle point); format: physicochemical; settings: —NHSO2— dissociation group, 25° C., THF/H2O=6/4
Method: The measurement of the pKa value in the present invention will be described below. […] 20 mL of H2O were then added to completely dissolve the material. Subsequently, 0.25 mL of an aqueous 0.2 N hydrochloric acid solution was added, and the resultant solution was stirred. An aqueous 0.2 N NaOH solution was dropped into this solution, and the pKa value was obtained from the neutralization middle point. All pKa values in the present invention were obtained under the above measurement conditions.

pKa value, more than 12:
CCCCCCCCCCCCCCCC(C(=O)O)C(=O)Nc1cccc(C(=O)Nc2ccc(CCCc3n[nH]c4cc(C(C)(C)C)nn34)cc2)c1 (centres unmarked) [Compound G-2]
CCCCCCCCOc1ccc(NS(=O)(=O)c2cc(C(C)(C)CC(C)(C)C)ccc2OCCOc2ccc(C)cc2)cc1S(=O)(=O)NC(C)c1n[nH]c2cc(C(C)(C)C)nn12 (centres unmarked) [Compound G-4]
CCCCCCCCOc1ccc(C(C)(C)CC(C)(C)C)cc1S(=O)(=O)Nc1ccc(OCCOC)c(S(=O)(=O)NC(C)(C)c2n[nH]c3c(Cl)c(C(C)(C)C)nn23)c1 [Compound G-5]
CCCCCCCCOc1ccc(NS(=O)(=O)c2cc(C(C)(C)CC(C)(C)C)ccc2OCCCCCCCC)cc1S(=O)(=O)NCC(C)c1n[nH]c2cc(CC)nn12 (centres unmarked) [Compound G-9]
CCCCCCCCCCCCCCCCCCOc1ccc(C(C)(C)C)cc1S(=O)(=O)NC(C)c1n[nH]c2cc(C(C)(C)C)nn12 (centres unmarked) [Compound G-1]
CCCCCCCCOc1ccc(NS(=O)(=O)c2cc(C(C)(C)CC(C)(C)C)ccc2OCCCCCCCC)cc1S(=O)(=O)NCC(C)c1n[nH]c2c(Cl)c(C(C)(C)C)nn12 (centres unmarked) [Compound G-6]
CCCCCCCCCCCCC(Oc1ccc(NS(=O)(=O)c2ccc(S(N)(=O)=O)cc2)cc1)c1n[nH]c2c(Cl)c(C)nn12 (centres unmarked) [Compound G-7]
CCCCCCCCOc1ccc(C(C)(C)CC(C)(C)C)cc1S(=O)(=O)Nc1cc(S(=O)(=O)Nc2c(C)cc(C)c(-c3n[nH]c4cc(CC)nn34)c2C)ccc1Cl [Compound G-3]
